Data set [1] in a line: Pharmacokinetic test in rats. Format: in vivo. The conditions noted are these: rat, male SD rats, plasma. As to the method:
3.1 Experimental animals: Male SD rats (about 220 g, 6-8 weeks old, 6 rats/compound) were purchased from Chengdu Dossy Experimental Animals Co., Ltd.
3.2 Experimental design: On the day of the experiment, the SD rats were randomly grouped by body weight. […] Table 4 Administration information
Before and after the administration, 0.1 ml of blood was taken from the orbit of the animals under isoflurane anaesthesia and placed in an EDTAK2 centrifuge tube. The blood was centrifuged at 5000 rpm and 4°C for 10 min to collect plasma. […] Before analysis and detection, all samples were stored at -80°C. Table 5 Pharmacokinetic parameters of test compounds in plasma of rats

Data set [2] has as its system testosterone level in NCI-H295R cells. In words: cells. Format: cell-based. The conditions noted are these: for inhibition at 0.1 µM / inhibition at 1 µM / IC50: Homo sapiens, NCI-H295R, 72 h; for inhibition at 0.1 µM: read-out: Testosterone level in H295R (Elisa) inh.% 100 nM, 100 nM compound, NCI-H295R cells, three days incubation; for inhibition at 1 µM: read-out: Testosterone level in H295R (Elisa) inh.% 1000 nM, 1000 nM compound, NCI-H295R cells, three days incubation; for IC50: read-out: Testosterone level in H295R (Elisa) IC50 nM. How it is done: The purpose of the experimental study was intended to detect the testosterone level in the NCI-H295R cells by adopting the Enzyme linked immunosorbent assay (ELISA), so as to evaluate the inhibitory effects of the compounds on the testosterone level in the NCI-H295R cells.
The H295R cells were purchased from ATCC, the cell complete medium contained DMEM: F12+ 10% FBS +0.00625 mg/ml insulin +0.00625 mg/ml transferrin+6.25 ng/ml selenium +1.25 mg/ml BSA+0.00535 mg/ml linoleic acid, and the cells were cultured in a 37°C, 5% CO2 incubator. The cells in the exponential growth phase were collected, and cultured in a cytokine-free medium (phenol red 1640-free +1% PS+10% css FBS+1.25 mg/ml BSA +0.00625 mg/ml insulin + 0.00625 mg/ml transferrin+6.25 ng/ml selenium+0.00535 mg/ml linoleic acid) for three days. The cells in the exponential growth phase were collected on the third day. The cell suspension was adjusted with a cytokine-free medium to a corresponding concentration and plated at 60000 cells/well, with the volume being 90 µL/well. Subsequently, 10 µL of the compounds at different concentrations was added and the plate was incubated in a CO2 incubator for three days. After the incubation was completed, according to the operation instructions for testosterone Elisa kit (Beyotime, PT872), 50 µL of the cell culture supernatant was collected from each well and centrifuged at 500 g for 5 min at room temperature and then the resulting supernatant was collected. The samples were added to the corresponding wells at 25 µl/well, and then formulated horseradish peroxidase labelled testosterone was added at 75 µl/well. The mixture was fully mixed for 10 seconds. The reaction wells were sealed with a plate-sealing film (white) and the mixture was incubated at room temperature in the dark for 120 min. The plate was washed three times with a volume of 300 µl per well, and then placed onto thick absorbent paper and dried. Chromogenic reagent TMB solution was added at 100 µl/well. The reaction wells were sealed with a plate-sealing film (white) and the mixture was incubated at room temperature in the dark for 15-20 min. Subsequently, a termination solution was added at 50 µl/well, and after the mixture was fully mixed, the absorbance value OD450 was immediately measured. The absorbance readings were processed using Graphpad Prim 8.0 software and S-shaped concentration curves were plotted and the IC50 values were calculated using a four-parameter non-linear regression model.

Setting [3] is: po, intragastric administration (10 mg/kg).
Where [4] appears, read: intravenous administration (2.5 mg/kg).

A word on the AUC(0-t): it is exposure summed from dosing to a finite time, without extrapolation to infinity. Low readings indicate less exposure, high ones more exposure. A word on the half-life: it is how long it takes for the measured level to halve. A higher half-life goes with slow loss. What is called clearance is the rate of elimination divided by the concentration. Read a high clearance as efficient removal. The IC50 is the concentration needed to halve the response being measured.

Turning to `O=C(OC1CC1)N1CCC(/C=C/c2coc(CN3Cc4ccc(C(F)(F)F)cc4C3)cc2=O)CC1` [Compound 31], in data set [1] (setting [3]), the area under the curve AUC(0-t) was 13400 ng·h/mL and the half-life is 5.65 h. Also, in data set [1] (setting [4]), the area under the curve AUC(0-t) came out at 4270 ng·h/mL, the clearance was found to be 9.48 mL/min/kg and the half-life was 5.16 h. Moreover, in data set [1] (intravenous administration (2.5 mg/kg), read-out: Vdss), the Vd stood at 3.41 L/kg.

As for `CC(F)(F)C(=O)N[C@H]1CC[C@H](/C=C/c2coc(CN3Cc4ccc(C(F)(F)F)cc4C3)cc2=O)CC1` [Compound 108], in data set [2], the inhibition at 0.1 µM turned out to be 75% and the inhibition at 1 µM is 84%.

For the compound `CS(=O)(=O)N[C@H]1C[C@H](C(=O)N2CCC(COc3coc(CN4Cc5ccc(C(F)(F)F)cc5C4)cc3=O)CC2)C1` [Compound 72], in data set [2], the inhibition at 0.1 µM was 58% and the inhibition at 1 µM came out at 68%.

Regarding `CS(=O)(=O)N1CC(OC(=O)N2CCC(COc3coc(CN4Cc5ccc(OC6CC6)cc5C4)cc3=O)CC2)C1` [Compound 25], in data set [2], the inhibition at 0.1 µM came out at 56% and the inhibition at 1 µM was determined as 77%.

Regarding `CS(=O)(=O)N1CC(OC(=O)N2CC3C(COc4coc(CN5Cc6ccc(C(F)(F)F)cc6C5)cc4=O)C3C2)C1` (stereo not shown) [Compound 77], in data set [2], the inhibition at 0.1 µM was found to be 71% and the inhibition at 1 µM is 84%.

`CS(=O)(=O)N1CCC2(CC1)CC(C(=O)N1CCC(COc3coc(CN4Cc5ccc(C(F)(F)F)cc5C4)cc3=O)CC1)C2` [Compound 75]: in data set [2], the inhibition at 0.1 µM was 69% and the inhibition at 1 µM was determined as 78%.

`O=C(O[C@H]1CCOC1)N1CCC(/C=C/c2coc(CN3Cc4ccc(OC5CC5)cc4C3)cc2=O)CC1` [Compound 48]: in data set [2], the inhibition at 0.1 µM was found to be 72.4% and the inhibition at 1 µM was 78.5%.

For `CS(=O)(=O)N1CC(OC(=O)N2CCC(COc3coc(CN4Cc5ccc(S(F)(F)(F)(F)F)cc5C4)cc3=O)CC2)C1` [Compound 19], in data set [2], the inhibition at 0.1 µM was 64.8% and the inhibition at 1 µM amounted to 78.3%.

As for `CS(=O)(=O)N1CC(OC(=O)N2CC(COc3coc(CN4Cc5ccc(C(F)(F)F)cc5C4)cc3=O)C2)C1` [Compound 60], in data set [2], the inhibition at 0.1 µM came out at 57.7% and the inhibition at 1 µM is 78.5%.

As for `C#Cc1ccc2c(c1)CN(Cc1cc(=O)c(OCC3CCN(C(=O)OC4COC4)CC3)co1)C2` [Compound 6], in data set [2], the inhibition at 0.1 µM turned out to be 79.5% and the inhibition at 1 µM came out at 90.8%.

Turning to `O=C(OC1CC1)N1CCC(COc2coc(CN3Cc4ccc(C(F)(F)F)cc4C3)cc2=O)CC1` [Compound 32], in data set [2], the 50% inhibitory concentration (IC50) stood at 117 nM, the inhibition at 0.1 µM was 76.1% and the inhibition at 1 µM amounted to 64.3%.

On to `O=C(OC1CC1)N1CC(/C=C/c2coc(CN3Cc4ccc(C(F)(F)F)cc4C3)cc2=O)C1` [Compound 53], for which, in data set [2], the inhibition at 0.1 µM was 61% and the inhibition at 1 µM came out at 67.3%.

Consider `O=C(N[C@H]1CC[C@@H](COc2coc(CN3Cc4ccc(C(F)(F)F)cc4C3)cc2=O)CC1)C1CC1(F)F` (stereo partly shown) [Compound 55], for which, in data set [2], the inhibition at 0.1 µM was found to be 63% and the inhibition at 1 µM turned out to be 72.7%.

As to `CC1(NC2CCC(/C=C/c3coc(CN4Cc5ccc(C(F)(F)F)cc5C4)cc3=O)CC2)COC1` (single isomer, unassigned) [Compound 122], in data set [2], the inhibition at 0.1 µM stood at 63% and the inhibition at 1 µM stood at 82%.

Regarding `O=C(N[C@H]1CC[C@H](CCc2coc(CN3Cc4ccc(C(F)(F)F)cc4C3)cc2=O)CC1)[C@H]1CC1(F)F` [Compound 113], in data set [2], the inhibition at 0.1 µM was determined as 76% and the inhibition at 1 µM worked out at 77%.

On to `Cc1nc(C(=O)N[C@H]2CC[C@H](COc3coc(CN4Cc5ccc(OC6CC6)cc5C4)cc3=O)CC2)cs1` [Compound 47], for which, in data set [2], the inhibition at 0.1 µM was found to be 72.2% and the inhibition at 1 µM was determined as 69.3%.

Consider `O=C(OC1CC1)N1CCC(COc2coc(CN3Cc4ccc(OC5CCC5)cc4C3)cc2=O)CC1` [Compound 49], for which, in data set [2], the inhibition at 0.1 µM was found to be 67.3% and the inhibition at 1 µM was found to be 75.2%.

Regarding `O=C(CC(F)(F)F)N[C@H]1CC[C@H](/C=C/c2coc(CN3Cc4ccc(C(F)(F)F)cc4C3)cc2=O)CC1` [Compound 102], in data set [2], the inhibition at 0.1 µM was found to be 79% and the inhibition at 1 µM is 82%.

With `O=c1cc(CN2Cc3ccc(C(F)(F)F)cc3C2)occ1OC[C@H]1CC[C@H](NS(=O)(=O)c2ccsc2)CC1` [Compound 68], in data set [2], the inhibition at 0.1 µM worked out at 81% and the inhibition at 1 µM is 86%.

For the compound `CS(=O)(=O)N1CCC2(CC1)CC2C(=O)N1CCC(COc2coc(CN3Cc4ccc(C(F)(F)F)cc4C3)cc2=O)CC1` (single isomer, unassigned) [Compound 69], in data set [2], the inhibition at 0.1 µM was found to be 62% and the inhibition at 1 µM stood at 76%.

Take `Cn1ncc(C(=O)N[C@H]2CC[C@H](/C=C/c3coc(CN4Cc5ccc(C(F)(F)F)cc5C4)cc3=O)CC2)c1F` [Compound 106]: in data set [2], the inhibition at 0.1 µM was 69% and the inhibition at 1 µM is 93%.

Consider `C#CCCS(=O)(=O)N1CCC(COc2coc(CN3Cc4ccc(C(F)(F)F)cc4C3)cc2=O)CC1` [Compound 12], for which, in data set [2], the inhibition at 0.1 µM amounted to 85.6% and the inhibition at 1 µM worked out at 83.4%.

Turning to `CS(=O)(=O)N1CCC2(CC1)CC2C(=O)N1CCC(COc2coc(CN3Cc4ccc(C(F)(F)F)cc4C3)cc2=O)CC1` (single isomer, unassigned) [Compound 70], the “Testosterone level in H295R (Elisa) inh.% 100 nM” value in data set [2] (100 nM compound, NCI-H295R cells, three days incubation) is 60%. Also, the “Testosterone level in H295R (Elisa) inh.% 1000 nM” value in data set [2] (1000 nM compound, NCI-H295R cells, three days incubation) came out at 83%.

With `O=C(N[C@H]1CC[C@H](COc2coc(CN3Cc4ccc(OC5CC5)cc4C3)cc2=O)CC1)C1CC1` [Compound 34], the IC50 in data set [2] was 122 nM.

Regarding `O=C(N[C@H]1CC[C@H](C(=O)Nc2coc(CN3Cc4ccc(C(F)(F)F)cc4C3)cc2=O)CC1)C1CC1` [Compound 119], in data set [2], the inhibition at 0.1 µM was found to be 60% and the inhibition at 1 µM came out at 81%.

On to `CC(OC(=O)N1CCC(COc2coc(CN3Cc4ccc(C(F)(F)F)cc4C3)cc2=O)CC1)C(F)(F)F` (single isomer, unassigned) [Compound 56], for which, in data set [2], the inhibition at 0.1 µM was 53.6% and the inhibition at 1 µM came out at 79.3%.

For `O=C(N[C@H]1CC[C@H](COc2coc(CN3Cc4ccc(C(F)(F)F)cc4C3)cc2=O)CC1)[C@H]1CC1(F)F` [Compound 65], in data set [2], the inhibition at 0.1 µM amounted to 80% and the inhibition at 1 µM was 78%.

Regarding `O=C(CC1CC1)N1CCC(/C=C/c2coc(CN3Cc4ccc(C5CC5)cc4C3)cc2=O)CC1` [Compound 16], in data set [2], the IC50 came to 98.3 nM, the inhibition at 0.1 µM was 55% and the inhibition at 1 µM stood at 79.6%.

As for `CS(=O)(=O)N1CC(OC(=O)N2CCC(/C=C/c3coc(CN4Cc5ccc(C(F)(F)F)cc5C4)cc3=O)CC2)C1` [Compound 26], in data set [2], the inhibition at 0.1 µM came to 61% and the inhibition at 1 µM was 78%.

Turning to `O=C(C1CC(F)(F)C1)N1CCC(COc2coc(CN3Cc4ccc(C(F)(F)F)cc4C3)cc2=O)CC1` [Compound 73], in data set [2], the inhibition at 0.1 µM stood at 83% and the inhibition at 1 µM came out at 87%.

Regarding `O=c1cc(CN2Cc3ccc(C(F)(F)F)cc3C2)occ1/C=C/[C@H]1CC[C@H](NS(=O)(=O)CC2CC2)CC1` [Compound 62], in data set [2], the inhibition at 0.1 µM amounted to 67% and the inhibition at 1 µM came out at 79%.

As to `O=C(N[C@H]1CC[C@H](COc2coc(CN3Cc4ccc(C(F)(F)F)cc4C3)cc2=O)CC1)[C@@H]1CC1(F)F` [Compound 66], in data set [2], the inhibition at 0.1 µM amounted to 78% and the inhibition at 1 µM was 82%.

Take `O=C(N[C@H]1CC[C@H](CCc2coc(CN3Cc4ccc(C(F)(F)F)cc4C3)cc2=O)CC1)[C@@H]1CC1(F)F` [Compound 112]: in data set [2], the inhibition at 0.1 µM was determined as 74% and the inhibition at 1 µM worked out at 78%.

In the case of `O=c1cc(CN2Cc3ccc(C(F)(F)F)cc3C2)occ1OC[C@H]1CC[C@@H](NS(=O)(=O)CC2CC2)CC1` [Compound 10], in data set [2], the inhibition at 0.1 µM came out at 63% and the inhibition at 1 µM was determined as 79.7%.

The values above are taken from EP4692079A1, “CYP11A1 INHIBITOR AND USE THEREOF” (priority 2023, dated 2024).
